Laboratory results published in publication PMC10177510, “A Multicenter, Open-Label, Phase I/II Study of FN-1501 in Patients with Advanced Solid Tumors” (Cancers, 2023).

Test: Phase I/II dose escalation: safety and tolerability (DLT, TEAE)
Type: in vivo
Method: This Phase 1/2, FIH, open-label, multi-center, single-arm, dose-escalation study was conducted in pts with histologically or cytologically confirmed advanced solid tumors or R/R AML.
In the absence of worrisome toxicity, the remaining pts could be enrolled and dosed in that cohort. Safety evaluations were performed by investigators, the medical monitor, and the Sponsor. A Safety Monitoring Committee determined dose levels to be administered during dose escalation based on data available from the current and previous dose levels.

## CN1CCN(Cc2ccc(NC(=O)c3[nH]ncc3Nc3ncnc4[nH]ccc34)cc2)CC1 [FN-1501]
72 mg/day, N = 3
  Diarrhea, patients with event: 1
  Dizziness, patients with event: 0
  Dyspnea, patients with event: 0
  Fatigue, patients with event: 0
  Infusion-related reaction, patients with event: 0
  Nausea, patients with event: 1
  Oedema peripheral, patients with event: 1
  Pyrexia, patients with event: 0
  Small intestinal obstruction, Grade ≥ 3 TEAE, n (%): 1
  Total number of TEAEs: 15
  Total patients with at least 1 TEAE: 2
  Vomiting, patients with event: 0
96 mg/day, 5 patients
  Dose-Limiting Toxicity: 0
96 mg/day, N = 5
  Abdominal pain, patients with event: 0
  Back pain, patients with event: 0
  Constipation, patients with event: 1
  Decreased appetite, patients with event: 0
  Diarrhea, patients with event: 1
  Diarrhoea, Grade ≥ 3 TEAE, n (%): 1
  Dizziness, patients with event: 1
  Dyspnea, patients with event: 0
  Fatigue, patients with event: 0
  Infusion-related reaction, patients with event: 1
  Lipase increased, Grade ≥ 3 TEAE, n (%): 1
  Nausea, patients with event: 2
  Oedema peripheral, patients with event: 0
  Pneumonia aspiration, Grade ≥ 3 TEAE, n (%): 1
  Pneumonia, Grade ≥ 3 TEAE, n (%): 1
  Pneumothorax, Grade ≥ 3 TEAE, n (%): 1
  Pyrexia, patients with event: 0
  Total number of TEAEs: 33
  Total patients with at least 1 TEAE: 5
  Vomiting, patients with event: 2
128 mg/day, 3 patients
  Dose-Limiting Toxicity: 0
128 mg/day, N = 3
  Abdominal pain, patients with event: 1
  Acute kidney injury, Grade ≥ 3 TEAE, n (%): 1
  Aspartate aminotransferase increased, Grade ≥ 3 TEAE, n (%): 1
  Back pain, patients with event: 1
  Blood creatinine increased, Grade ≥ 3 TEAE, n (%): 1
  Constipation, patients with event: 0
  Decreased appetite, patients with event: 1
  Diarrhea, patients with event: 0
  Dizziness, patients with event: 1
  Dyspnea, patients with event: 1
  Fatigue, patients with event: 1
  Infusion-related reaction, patients with event: 0
  Nausea, patients with event: 1
  Oedema peripheral, patients with event: 1
  Pyrexia, patients with event: 1
  Total number of TEAEs: 43
  Total patients with at least 1 TEAE: 2
  Vomiting, patients with event: 0
170 mg/day, 4 patients
  Dose-Limiting Toxicity: 0
170 mg/day, N = 4
  Abdominal pain, patients with event: 1
  Back pain, patients with event: 0
  Bacteraemia, Grade ≥ 3 TEAE, n (%): 1 (25)
  Constipation, patients with event: 2
  Decreased appetite, patients with event: 1
  Dehydration, Grade ≥ 3 TEAE, n (%): 1 (25)
  Diarrhea, patients with event: 2
  Dizziness, patients with event: 1
  Dyspnea, patients with event: 2
  Fatigue, patients with event: 4
  Hyponatraemia, Grade ≥ 3 TEAE, n (%): 1
  Hypoxia, Grade ≥ 3 TEAE, n (%): 1 (25)
  Infusion-related reaction, patients with event: 2
  Lethargy, Grade ≥ 3 TEAE, n (%): 1 (25)
  Nausea, patients with event: 1
  Neutropenia, Grade ≥ 3 TEAE, n (%): 1 (25)
  Oedema peripheral, patients with event: 0
  Pyrexia, patients with event: 0
  Total number of TEAEs: 60
  Total patients with at least 1 TEAE: 4
  Vomiting, patients with event: 1
226 mg/d cohort
  DLT of Grade 4 thrombocytopenia, pts: 1 (25%)
  pts with ≥Grade 3 AEs that qualified as DLTs: 50%
226 mg/day, N = 4
  Abdominal pain, patients with event: 0
  Back pain, Grade ≥ 3 TEAE, n (%): 2
  Back pain, patients with event: 2
  Constipation, patients with event: 0
  Decreased appetite, patients with event: 1
  Diarrhea, patients with event: 3
  Diarrhoea, Grade ≥ 3 TEAE, n (%): 1 (25)
  Dizziness, patients with event: 1
  Dyspnea, patients with event: 0
  Fatigue, patients with event: 0
  Hyponatraemia, Grade ≥ 3 TEAE, n (%): 1
  Hypophosphataemia, Grade ≥ 3 TEAE, n (%): 1 (25)
  Infusion related reaction, Grade ≥ 3 TEAE, n (%): 1 (25)
  Infusion-related reaction, patients with event: 1
  Iron deficiency anaemia, Grade ≥ 3 TEAE, n (%): 1 (25)
  Nausea, patients with event: 1
  Oedema peripheral, patients with event: 0
  Pneumonia, Grade ≥ 3 TEAE, n (%): 1 (25)
  Pyrexia, patients with event: 0
  Thrombocytopenia, Grade ≥ 3 TEAE, n (%): 1 (25)
  Total number of TEAEs: 46
  Total patients with at least 1 TEAE: 4
  Vomiting, patients with event: 2
IV TIW 2 weeks on, 1 week off
  Maximum tolerated dose (MTD): 170 mg/day
IV three times a week for 2 weeks, 21-day cycles
  Maximum tolerated dose (MTD): 170 mg
Total, N = 48
  Abdominal distension, Grade ≥ 3 TEAE, n (%): 1 (2)
  Abdominal pain, Grade ≥ 3 TEAE, n (%): 1
  Abdominal pain, patients with event: 9
  Acute kidney injury, Grade ≥ 3 TEAE, n (%): 1
  Adrenal insufficiency, Grade ≥ 3 TEAE, n (%): 1 (2)
  Anaemia, Grade ≥ 3 TEAE, n (%): 1 (2)
  Aspartate aminotransferase increased, Grade ≥ 3 TEAE, n (%): 1
  Back pain, patients with event: 6
  Bacteraemia, Grade ≥ 3 TEAE, n (%): 1
  Bacterial sepsis, Grade ≥ 3 TEAE, n (%): 1
  Blood alkaline phosphatase increased, Grade ≥ 3 TEAE, n (%): 1 (2)
  Blood bilirubin increased, Grade ≥ 3 TEAE, n (%): 1 (2)
  Blood creatinine increased, Grade ≥ 3 TEAE, n (%): 1
  Catheter site infection, Grade ≥ 3 TEAE, n (%): 1
  Constipation, patients with event: 7
  Decreased appetite, patients with event: 6
  Dehydration, Grade ≥ 3 TEAE, n (%): 1
  Delirium, Grade ≥ 3 TEAE, n (%): 1
  Dizziness, patients with event: 7
  Dyspnea, patients with event: 6
  Fatigue, patients with event: 15
  Hypophosphataemia, Grade ≥ 3 TEAE, n (%): 1
  Hypoxia, Grade ≥ 3 TEAE, n (%): 1
  Infusion related reaction, Grade ≥ 3 TEAE, n (%): 1
  Infusion-related reaction, patients with event: 7
  Iron deficiency anaemia, Grade ≥ 3 TEAE, n (%): 1
  Lethargy, Grade ≥ 3 TEAE, n (%): 1
  Lipase increased, Grade ≥ 3 TEAE, n (%): 1 (2)
  Lung infection, Grade ≥ 3 TEAE, n (%): 1
  Neutropenia, Grade ≥ 3 TEAE, n (%): 1
  Oedema peripheral, patients with event: 5
  Peritonitis, Grade ≥ 3 TEAE, n (%): 1 (2)
  Pneumonia aspiration, Grade ≥ 3 TEAE, n (%): 1 (2)
  Pneumothorax, Grade ≥ 3 TEAE, n (%): 1 (2)
  Pyrexia, patients with event: 5
  Sepsis, Grade ≥ 3 TEAE, n (%): 1 (2)
  Stomatitis, Grade ≥ 3 TEAE, n (%): 1
  Syncope, Grade ≥ 3 TEAE, n (%): 1 (2)
  Thrombocytopenia, Grade ≥ 3 TEAE, n (%): 1
  Total number of TEAEs: 381
  Total patients with at least 1 TEAE: 45
  Vascular access complication, Grade ≥ 3 TEAE, n (%): 1
abstract, all doses
  Grade 1–2 diarrhea (TEAE), pts: 26%
  Grade 1–2 fatigue (TEAE), pts: 34%
  Grade 1–2 nausea (TEAE), pts: 32%
All doses 2.5 to 226 mg IV
  Treatment-related adverse events (TRAEs), pts: 64%
All doses, N = 48
  Abdominal distension, pts: 4
  Gastrointestinal (GI) disorders, pts: 30 (63%)
discussion, all doses
  Grade 1 or 2 fatigue, pts: 21%
  Grade 1 or 2 nausea, pts: 19%
Doses of 170 mg or lower
  DLTs: No DLTs
